Reference: paper PMC6978316, “Development of chimeric peptides to facilitate the neutralisation of lipopolysaccharides during bactericidal targeting of multidrug-resistant Escherichia coli” (Communications Biology, 2020)
Like-named read-outs stand apart in the source and are kept apart here. Bridges are numbered along the chain shown (N, C = ends).

Columns and labels:
IκBα = experiment: Western blotting of lung tissues, IκBα/β-actin; type: in vivo, mice
Description: (§1) Additionally, the mice were sacrificed at 8 h and the lung tissues were homogenized and suspended in […] HEPES buffer for 20 min according to standard procedures. After centrifugation at 4 °C for 20 min (12,000 rpm), the protein levels of supernatants were quantified using a Bradford protein assay kit. A total of 30 μg proteins were analyzed on an 8–12% sodium dodecyl sulfate-polyacrylamide gel electrophoresis (SDS-PAGE) gel and were immunoblotted onto PVDF membranes, followed by an incubation with the primary antibodies of p65, p-p65, extracellular signal-regulated kinase (ERK)1/2, p-ERK1/2, and IκBα overnight at 4 °C. After washing, the blots were incubated with the peroxidase conjugated goat-rabbit or goat-mouse antibodies. Relative protein expression levels were quantified by a densitometric measurement of chemiluminescence (ECL) reaction band. β-actin was used as the internal reference.

MDR E. coli CVCC195 = experiment: Thermal stability, residual antibacterial activity (inhibition zone); type: physicochemical, Escherichia coli; details: mean of n = 3
Description: The N6, A6, and G6 solutions were treated at different temperatures (20–100 °C) for 1 h, dissolved and incubated at different pH values (2–10) for 3 h, or incubated with trypsin or pepsin for 4 h. The inhibition zone diameters were measured after incubation at 37 °C for 18–24 h.

NF-κB p-p65 subunit = experiment: Western blotting of lung tissues, p-p65/p65; type: in vivo, mice
Description: as §1

[1] = system: binding of FITC-labeled LPS to RAW 264.7 cells; experiment: Binding of FITC-labeled LPS to macrophages (flow cytometry); type: cell-based, mouse; details: FITC-LPS 100 μg per ml, 0.1 μM peptide 1 h
Description: Similarly, after an incubation with FITC-labeled LPS and washing with medium, cells were incubated with rhodamine-labeled A6 or G6 (0.1 μM) at 37 °C for 1 h. After washing again, the effects of peptides on the binding of FITC-labeled LPS to the cells were analyzed by CLSM and flow cytometry, respectively.

ERK1/2 phosphorylation = experiment: Western blotting of lung tissues, p-ERK1/2/ERK1/2; type: in vivo, mice
Description: as §1

[2] = system: TNF-α, IL-6 and IL-10 in LPS-stimulated RAW 264.7 cells; experiment: Cytokines in LPS-stimulated macrophages (ELISA); type: cell-based, mouse; design: unit not given here
Description: Macrophages RAW 264.7 were incubated with LPS (0.1 and 1 μg per ml) that was dissolved in serum-free DMEM medium, and then were treated with A6, G6, N6, or PMB (20 μM) alone in 24-well plates (2.5 × 10^5 cells per well). The cells incubated with serum-free DMEM and LPS were used as a control. After treatment for 2 h, the supernatants were collected and assessed for TNF-α, IL-6, and IL-10 by using the ELISA kits in the Jiaxuan Biotech. Co. Ltd. (Beijing, China).
73 Supplementary Figure 15. Effects of SCPs on cytokines in RAW 264.7 ells. Cells were incubated with 0.1 μg per
74 ml (a) or 1 μg per ml (b) LPS and 20 μM A6, G6, N6 or PMB for 2 h. The levels of TNF-α, IL-6 and IL-10 in
75 supernatants were measured using ELISA. The data are given as the mean ± SD (n = 3 independent experiments).
76 Different lower case letters indicate a significant difference between two groups (p < 0.05).
(§2) (1 picture or pasted object on this page, not shown here)

E. coli LPS = experiment: BODIPY-TR-cadaverine (BC) displacement assay; type: binding, Escherichia coli; details: 100 μM
Description: The affinity of SCPs (A6, G6, and N6) to E. coli LPS was detected by the fluorescent BC probe. The binding of fluorescent probe with LPS can cause fluorescence quenching. When peptides bind to LPS, BC probe can be replaced, which can result in an increase in fluorescence. Equal volumes of LPS (40 μg per ml) and BC probe (10 μM) in 50 mM Tris buffer (pH 7.4) were mixed and added into a black 96-well microtiter plate (180 μl mixture per well), followed by the addition of different concentrations of A6, G6, or N6 (20 μl per well). Ampicillin and PMB were used as the negative and positive control, respectively. Changes in fluorescence were measured by a fluorescence spectrophotometry at room temperature (excitation: 580 nm, emission: 620 nm) and the BC displacement rate was calculated.

LPS-induced lung injury = experiment: Protection of lung tissues from LPS (histology); type: in vivo; details: LPS-challenged mice, 0.25 μmol per kg
Description: The mice were treated with N6 (0.25 μmol per kg), A6 (0.25 μmol per kg), G6 (0.25 μmol per kg), and PMB (10 μmol per kg), respectively after the intraperitoneal injection of LPS at a concentration of LD100. The lung tissues were taken at 1 d and 6 d, respectively, washed with PBS and placed in 4% paraformaldehyde for 24 h at 4 °C. After washing with PBS, the tissues were dehydrated by a series of different concentrations of ethanol (75%, 85%, 90%, and 95%) and were immersed in xylene for paraffin embedding. After sectioning, the samples were stained with hematoxylin and were observed by a light microscope. The mice challenged with LPS and PBS served as the negative and blank control, respectively.

[3] = system: 1:1 mixture of E. coli CVCC195 and S. aureus ATCC43300; type: cell-based, Escherichia coli; Staphylococcus aureus; details: Mean
Description: The selectivity of A6, G6, and N6 against Gram-negative and Gram-positive bacteria was determined using the mixed-culture bactericidal kinetics assay, as described in the Supplementary Information.
27 Supplementary Figure 6. Killing selectivity of peptides. A 1:1 mixture of E. coli (Ec) and S. aureus
28 (Sa) was treated with A6 (16 μg per ml), G6 (16 μg per ml) or N6 (2 μg per ml) for 1, 3 and 5 min,
29 respectively; survivors were counted in MH plates. The change in relative ratio of E. coli to S. aureus
30 (Ec/Sa) after treatment with A6, G6 or N6 is shown.
31 independent experiments).
as §2
102 Supplementary Methods
103 Mixed-culture bactericidal kinetics of SCPs-A6 and G6. The mid-exponential phage E. coli
104 CVCC195 and S. aureus ATCC43300 cultures were diluted to 2 × 10^5 CFU per ml, mixed (1:1) and
105 added into the 96-well plates. A6, G6 or N6 were added into each well of plates to final concentration
106 of 16 (A6 and G6) or 2 (N6) μg per ml in a 200-μl total volume. An aliquot was removed at 1, 3 and 5
107 min, respectively, and survivors were counted on MH solid plates1–3. […]

[4] = lung tissue 8 h, LPS 13.5 mg per kg, western blotting, densitometry
[5] = RAW 264.7 cells incubated with 0.1 μg per ml LPS
[6] = RAW 264.7 cells incubated with 1 μg per ml LPS

H-RVQGRWKVRASFFKEAAAKEAAAKGFAWNVCVYRNGVRVCHRRAN-OH (disulfide 31-40) [A6]
densitometric analysis of IκBα/β-actin ratio (IκBα; LPS + substance, Mean): 1.193 | effect on LPS-induced IκBα levels (IκBα; lung tissue 8 h, LPS 13.5 mg per kg, western blotting): promoted LPS-induced IκBα levels | antibacterial activity after heat treatment (inhibition zone diameter), Mean (MDR E. coli CVCC195; 20℃ for 1 h, inhibition zone vs E. coli CVCC195 after 37 °C 18–24 h): 1.498 | antibacterial activity after heat treatment (inhibition zone diameter), Mean (MDR E. coli CVCC195; 40℃ for 1 h, inhibition zone vs E. coli CVCC195): 1.533 | antibacterial activity after heat treatment (inhibition zone diameter), Mean (MDR E. coli CVCC195; 60℃ for 1 h, inhibition zone vs E. coli CVCC195): 1.494 | antibacterial activity after heat treatment (inhibition zone diameter), Mean (MDR E. coli CVCC195; 80℃ for 1 h, inhibition zone vs E. coli CVCC195): 1.5 | antibacterial activity after heat treatment (inhibition zone diameter), Mean (MDR E. coli CVCC195; 100℃ for 1 h, inhibition zone vs E. coli CVCC195): 1.477 | densitometric analysis of p-p65/p65 ratio (NF-κB p-p65 subunit; LPS + substance, Mean): 0.106 | inhibition of LPS-induced translocation of the NF-κB p-p65 subunit (NF-κB p-p65 subunit; [4]): 89.7% | inhibition rate of FITC-labeled LPS binding to RAW 264.7 cells [1]: 33.2% | densitometric analysis of p-ERK1/2/ERK1/2 ratio (ERK1/2 phosphorylation; LPS + substance, Mean): 1.795 | attenuation of ERK1/2 phosphorylation (ERK1/2 phosphorylation; [4]): moderately promoted the ERK1/2 phosphorylation | IL-6 Mean [2, 5]: 246.9 | IL-10 Mean [2, 5]: 89.8 | TNFα Mean [2, 5]: 410.667 | IL-6 Mean [2, 6]: 216.667 | IL-10 Mean [2, 6]: 77.3667 | TNFα Mean [2, 6]: 355.9 | BC displacement ratio (E. coli LPS): 100% | lung histology at 1 d (LPS-induced lung injury): partial alleviation of tissue swelling and injury | lung histology at 6 d (LPS-induced lung injury): no pathological changes | killing selectivity of peptides ([3]; time 0 min): 0.9569 | killing selectivity of peptides ([3]; time 1 min): 0.7697 | killing selectivity of peptides ([3]; time 3 min): 0.8015 | killing selectivity of peptides ([3]; time 5 min): 0.5904
